Test results from PubChem BioAssay (NCI).
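The compound was tested at five concentrations on cells cultured in 96-well plates, with a 48-hour exposure period. GI50 = concentration required for 50% inhibition of growth. TGI denotes the concentration required for complete inhibition of growth.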

Legend:
Assay in all cases: NCI-60 cell line screen, 48 h
786-0 renal = test system: 786-0 renal
COLO 205 colon = test system: COLO 205 colon
HCT-116 colon = test system: HCT-116 colon
HCT-15 colon = test system: HCT-15 colon
HOP-92 NSCLC = test system: HOP-92 NSCLC
HT29 colon = test system: HT29 colon
PC-3 prostate = test system: PC-3 prostate
SK-MEL-2 melanoma = test system: SK-MEL-2 melanoma
SK-MEL-28 melanoma = test system: SK-MEL-28 melanoma
SK-MEL-5 melanoma = test system: SK-MEL-5 melanoma

SMILES | TGI (786-0 renal) [µM] | TGI (COLO 205 colon) [µM] | TGI (HCT-116 colon) [µM] | TGI (HCT-15 colon) [µM] | TGI (HOP-92 NSCLC) [µM] | TGI (HT29 colon) [µM] | TGI (PC-3 prostate) [µM] | TGI (SK-MEL-2 melanoma) [µM] | TGI (SK-MEL-28 melanoma) [µM] | TGI (SK-MEL-5 melanoma) [µM] | GI50 (COLO 205 colon) [µM] | GI50 (HCT-116 colon) [µM] | GI50 (HCT-15 colon) [µM] | GI50 (HOP-92 NSCLC) [µM] | GI50 (HT29 colon) [µM] | GI50 (PC-3 prostate) [µM] | GI50 (SK-MEL-2 melanoma) [µM] | GI50 (SK-MEL-28 melanoma) [µM] | GI50 (SK-MEL-5 melanoma) [µM]
O=C(C#Cc1cn(C2CC(O)C(CO)O2)c(=O)[nH]c1=O)c1ccccc1 (stereo unspecified) | > 100 | 65.7 | > 100 | > 100 | 53.2 | > 100 | > 100 | > 100 | > 100 | > 100 | – | – | – | – | – | – | – | – | –
CCC(C)C1(O)OC2CC3(C)OC(=CC3=O)/C(C)=C\C3OC(=O)C1(C)C32 (stereo unspecified) | 81.8 | 21 | 47.2 | 17.3 | 31.3 | 34.3 | > 100 | 96.5 | > 100 | 23.1 | – | – | – | – | – | – | – | – | –
O=C(/C=C/c1ccccc1O)/C=C/c1ccccc1O | 3.22 | 3.4 | 1.23 | 5.1 | 4.87 | 4.85 | 3.38 | 23.1 | 3.67 | 2.8 | – | – | – | – | – | – | – | – | –
C[C@H](CCC1=NCCN1)[C@H]1CC[C@H]2[C@@H]3CC[C@@H]4C[C@H](O)CC[C@]4(C)[C@H]3C[C@H](O)[C@]12C | 33 | 23.8 | > 100 | > 100 | 30.9 | 22.3 | 20.7 | 26.7 | 34.6 | 24.5 | – | – | – | – | – | – | – | – | –
Cc1ccc2nc(Cl)c(/C=N/N3C(=O)/C(=C/c4ccc(N(C)C)cc4)N=C3c3ccccc3)cc2c1 | > 100 | > 100 | > 100 | > 100 | > 100 | > 100 | > 100 | 98.7 | > 100 | > 100 | – | – | – | – | – | – | – | – | –
CC(=O)NC1=C(C)C(=O)c2c(nc3n2CC[C@H]3OC(C)=O)C1=O | 4.32 | 3.36 | 3.14 | 12.6 | 1.83 | 8.13 | 1.99 | 3.52 | 5.16 | 8.07 | – | – | – | – | – | – | – | – | –
O=C(c1ccccc1)N1C(=S)N(c2ccc([N+](=O)[O-])cc2)C(=Nc2ccccc2)C1=Nc1ccccc1 | > 100 | > 100 | – | > 100 | > 100 | > 100 | > 100 | > 100 | > 100 | > 100 | – | – | – | – | – | – | – | – | –
O=C1/C(=C/c2ccco2)NC(=S)N1CN1CCOCC1 | > 100 | > 100 | > 100 | > 100 | > 100 | > 100 | > 100 | > 100 | > 100 | > 100 | – | – | – | – | – | – | – | – | –
CC(=N\N=C\c1ccccn1)/C(C)=N/N=C(C)/C(C)=N/N=C(C)/C(C)=N/N=C/c1ccccn1 | > 100 | > 100 | > 100 | > 100 | > 100 | > 100 | > 100 | > 100 | > 100 | > 100 | – | – | – | – | – | – | – | – | –
CC(C)(C)c1cc(C2COC(=O)COCC(=O)OCCOCCOCCO2)cc(C(C)(C)C)c1O (stereo unspecified) | 43.3 | > 100 | > 100 | > 100 | 59.3 | > 100 | > 100 | 90.3 | 38.9 | > 100 | – | – | – | – | – | – | – | – | –
O=C1O[C@]2(c3ccccc3)C(c3ccccc3)=C[C@]2(C(=O)c2ccccc2)C1=O | 85.7 | > 100 | > 100 | > 100 | 64.8 | > 100 | > 100 | 74.6 | > 100 | > 100 | – | – | – | – | – | – | – | – | –
C/C=C\C(CC(=O)NCCC1CN(C(=O)c2ccccc2)c2ccccc21)CC(=O)OC (stereo unspecified) | > 100 | > 100 | > 100 | > 100 | > 100 | > 100 | > 100 | > 100 | > 100 | > 100 | – | – | – | – | – | – | – | – | –
CCOC(=O)C(NCc1cccc(C(F)(F)F)c1)(NC(=O)c1ccccc1)C(F)(F)F (stereo unspecified) | 79.5 | 29.9 | > 100 | > 100 | 64.7 | 48.5 | > 100 | > 100 | 63.6 | > 100 | – | – | – | – | – | – | – | – | –
CCOC(=O)N(C)C1(c2ccccc2)CCN(CCCC(=O)c2ccc(F)cc2)CC1 | 88.7 | 29.7 | > 100 | > 100 | 78.6 | 38.1 | > 100 | 53.5 | 47.1 | 31.3 | – | – | – | – | – | – | – | – | –
COc1cc(C2S/C(=C/c3ccccc3)C(=O)N2c2cccc([N+](=O)[O-])c2)cc(OC)c1OC (stereo unspecified) | > 100 | > 100 | > 100 | > 100 | > 100 | > 100 | > 100 | 67.9 | > 100 | > 100 | – | – | – | – | – | – | – | – | –
C#CCOC(=O)C(N)CCCN=C(N)N (stereo unspecified) | > 100 | > 100 | > 100 | > 100 | > 100 | > 100 | > 100 | > 100 | > 100 | > 100 | – | – | – | – | – | – | – | – | –
Nc1ccc(-n2c(=O)oc3ccc(Cl)cc3c2=O)c(Cl)c1 | – | 8.26 | 0.52 | 21.6 | 0.168 | > 35.3 | 9.59 | 0.807 | 0.73 | 0.136 | 2.97 | 0.108 | 0.138 | 0.0281 | 1.17 | 0.264 | 0.207 | 0.1 | 0.048
CCOC(=O)C(=Cn1c(=S)[nH]c2ccc([N+](=O)[O-])cc21)C(=O)OCC | > 100 | > 100 | > 100 | – | > 100 | > 100 | > 100 | > 100 | > 100 | > 100 | – | – | – | – | – | – | – | – | –
N#Cc1nc(/C=C/c2ccccc2)oc1N | > 100 | > 100 | > 100 | > 100 | > 100 | > 100 | > 100 | > 100 | > 100 | > 100 | – | – | – | – | – | – | – | – | –
